The IC50 is the midpoint of a concentration-inhibition curve. One may read the EC50 as the concentration that produces a half-maximal response.

Results on 38 molecules are retold here after ChEMBL document CHEMBL6153027, “Recent report on indoles as a privileged anti-viral scaffold in drug discovery” (Eur J Med Chem, 2025).

Data set [1] in a line: Cytotoxicity against African green monkey Vero E6 cells assessed as reduction in cell viability measured for 3 days by CCK-8 assay. It counts as toxicity, cell-based. The settings on record: chlorocebus sabaeus, Vero E6 cells (Vero C1008); time 3 day. (Formazan colour is commonly taken as a measure of viable cells.)
Data set [2] is described as follows: Inhibition of Influenza A virus H5N1 neuraminidase.
Data set [3] deals with Human immunodeficiency virus 1. Briefly: Antiviral activity against wild type HIV-1 NL4-3 infected in human MT4 cells assessed as reduction in viral replication. It counts as functional, organism-based. The note with it: Human immunodeficiency virus 1, NL4-3, MT4.
The next data set concerns Sindbis virus. Briefly: Antiviral activity against Sindbis virus infected in African green monkey Vero cells assessed as reduction in virus induced cytopathic effect. The class given is functional, organism-based. Background: Cytopathic effects are the visible damage that an infection or toxin causes in cultured cells.
The subject of a further data set is Zika virus. Briefly: Antiviral activity against Zika virus infected in African green monkey Vero cells assessed as reduction in virus induced cell death. The class given is functional, organism-based.
Data set [4] deals with SARS-CoV-2. It counts as functional, organism-based. The settings on record: Severe acute respiratory syndrome coronavirus 2, Wuhan-Hu-1, Vero C1008.
Data set [5] deals with T1, Human immunodeficiency virus type 1 integrase (Human immunodeficiency virus 1, UniProt Q7ZJM1). Briefly: Inhibition of HIV-1 integrase.
T1 sequence (Q7ZJM1 whole entry): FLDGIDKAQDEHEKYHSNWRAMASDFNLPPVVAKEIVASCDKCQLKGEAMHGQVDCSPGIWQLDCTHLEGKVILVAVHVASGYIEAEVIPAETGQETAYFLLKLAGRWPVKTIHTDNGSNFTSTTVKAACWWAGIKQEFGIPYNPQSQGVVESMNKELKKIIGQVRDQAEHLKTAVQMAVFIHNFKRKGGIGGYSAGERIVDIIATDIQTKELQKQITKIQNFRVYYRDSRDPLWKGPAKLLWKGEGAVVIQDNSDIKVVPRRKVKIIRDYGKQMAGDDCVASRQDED
A further data set concerns Influenza A virus. Briefly: Antiviral activity against Influenza virus […] (A/California/07/2009 pdm09) infected in human Calu-3 cells assessed as viral RNA measured after 3 days by RT-PCR assay. It counts as functional, organism-based. The settings on record: Calu-3, 72 h.
In data set [6] the test system is Human immunodeficiency virus 1. The experiment in a line: Antiviral activity against HIV-1 infected in human MT4 cells assessed as reduction in viral replication. The class given is functional, organism-based. The note with it: Human immunodeficiency virus 1, MT4.
Data set [7] is described as follows: Inhibition of Influenza A virus A/California/04/2009 (H1N1) domain of PA endonuclease expressed in Escherichia coli BL21 (DE3) cells.
In data set [8] the test system is SARS-CoV-2. The class given is functional, organism-based. The settings on record: Severe acute respiratory syndrome coronavirus 2, Wuhan-Hu-1, Vero C1008. The source holds these as a separate data set.
In data set [9] the test system is Respiratory syncytial virus. Briefly: Antiviral activity against RSV-A2 infected in human HEp-2 cells incubated for 4 days by Cell Titer Glo assay. The settings on record: A2, HEp-2, 96 h. The class given is functional, organism-based. (Cellular ATP, detected with luciferase, serves as a proxy for viable cell number.)
The subject of another data set is Potato virus Y. The experiment in a line: Antiviral activity against Potato Virus Y. It counts as functional, organism-based.
Data set [10] can be described thus: Inhibition of N-terminal SARS-CoV-2 Main protease using ESATLQSGLRKAK-QXL-NH2 as substrate incubated for 60 mins by FRET assay. The arrangement: species or system Severe acute respiratory syndrome coronavirus 2.
Data set [11] concerns SARS-CoV-2. The class given is functional, organism-based, Vero E6. The note with it: Severe acute respiratory syndrome coronavirus 2, Vero C1008, 48 h.
Data set [12] deals with Venezuelan equine encephalitis virus. Briefly: Antiviral activity against VEEV TC-83 infected in human U-87 MG cells assessed as reduction in viral replication. The class given is functional, organism-based. The settings on record: TC-83, U-87 MG.
The test system of data set [13] is SARS-CoV-2. It counts as functional, organism-based, Vero E6. The settings on record: Severe acute respiratory syndrome coronavirus 2, Vero C1008, 48 h. This is another data set of the same source.
In data set [14] the test system is Respiratory syncytial virus. Briefly: Antiviral activity against RSV-A infected in human A549 cells at 0.01 MOI assessed as inhibition of virus induced cytopathic effect […] by MTT assay. It counts as functional, organism-based.
The subject of data set [15] is Human immunodeficiency virus 1. The experiment in a line: Antiviral activity against HIV-1 IIIB infected in human C8166 cells assessed as reduction in viral replication. It counts as functional, organism-based. The settings on record: Human immunodeficiency virus 1, IIIB.
In data set [16] the target is T1, Human immunodeficiency virus type 1 integrase. The experiment in a line: Inhibition of recombinant HIV-1 integrase by strand transfer activity.
A further data set has as its system Tobacco mosaic virus. Briefly: Antiviral activity against Tobacco mosaic virus. It counts as functional, organism-based.
The subject of data set [17] is Vesicular stomatitis virus. The experiment in a line: Antiviral activity against Vesicular stomatitis virus. The class given is functional, organism-based.
In data set [18] the test system is Respiratory syncytial virus. The experiment in a line: Antiviral activity against Respiratory syncytial virus. The settings on record: human respiratory syncytial virus. The class given is functional, organism-based.
The subject of data set [19] is SARS-CoV-2. It counts as functional, organism-based, Vero E6. The settings on record: Severe acute respiratory syndrome coronavirus 2, Vero C1008.
Another data set has as its system C8166. The experiment in a line: Cytotoxicity against human C8166 cells assessed as reduction in cell viability incubated for 3 days by MTT assay. It counts as functional. The note with it: C8166, 72 h, time 3 day.
The next data set has as its system Human respirovirus 1. The experiment in a line: Antiviral activity against Human parainfluenza virus 1 infected in Vero cells assessed as reduction in viral replication at 10 ug/ml relative to control. It counts as functional. The arrangement: scale not given: the % may be the effect or the level left. The settings on record: dose 10 µg/ml.
Data set [20] can be described thus: Inhibition of Zika virus NS5 RNA dependent RNA polymerase.
Data set [21] in a line: Cytotoxicity against African green monkey Vero cells assessed as reduction in cell viability measured after 72 hrs by MTT assay. The settings on record: chlorocebus sabaeus. It counts as toxicity, cell-based.
Another data set relates to Human alphaherpesvirus 2. Briefly: Antiviral activity against HSV-2 infected in African green monkey Vero cells assessed as reduction in virus-induced cytopathic effect incubated for 3 days by MTT assay. The class given is functional, organism-based. The note with it: Human alphaherpesvirus 2, Vero, 72 h.
A short description of data set [22]: Toxicity in African green monkey Vero cells assessed as reduction in cell viability incubated for 3 days by MTT assay. The class given is cell-based. The settings on record: chlorocebus sabaeus, time 3 day, read-out: TC50.

Structures are written as SMILES. In brackets after ≈: the same amount, converted by molar mass.

For the molecule `COc1cccc2[nH]c(C(=O)N[C@@H](CC(C)C)C(=O)N[C@@H](C[C@@H]3CCNC3=O)C(=O)c3nc4ccccc4s3)cc12`, the CC50 at 72 h in [1] is > 100 µM. `CC1=NCCc2c1[nH]c1ccccc21` came in with an IC50 in data set [2] of 0.023 µg/mL (≈ 0.125 µM).

For the molecule `COP(=O)(c1cc(C)cc(OCC#N)c1)c1c(C(N)=O)[nH]c2ccc(Cl)cc12` (configuration not stated), the EC50 in [3] worked out at 0.08 nM.

In the case of `NS(=O)(=O)c1ccc(NC(=S)N/N=C2\C(=O)Nc3ccc(Br)cc32)cc1`, the EC50 in the data set on Sindbis virus turned out to be 3000 nM. For the molecule `NS(=O)(=O)c1ccc(NC(=S)N/N=C2\C(=O)Nc3ccc(OC(F)(F)F)cc32)cc1`, the EC50 in the data set with Sindbis virus was 2000 nM. As to `O=C(NCC1CCNCC1)c1cc2ccc(-c3ccoc3)cc2[nH]1`, in the data set with Zika virus, the IC50 is 370 nM. As for `O=C1C[C@@H]2OCC=C3CN4CC[C@]56c7ccccc7N1[C@H]5[C@H]2[C@H]3C[C@H]46.O=S(=O)(O)O`, the IC50 in [2] worked out at 11.85 µg/mL. On to `O=C(NCC1CCNCC1)c1c[nH]c2cc(-c3ccoc3)c(-c3ccoc3)cc12`, for which the IC50 with SARS-CoV-2 [4] worked out at 3.8 µM. For the molecule `O=C(Oc1cncc(Cl)c1)c1cccc2c1CCN2`, in data set [1], the CC50 at 72 h was > 100 µM. For `O=C1c2c(ccc(O)c2O)CN1Cc1ccc(O)cc1`, the IC50 in data set [5] and in data set [7] was 7.5 nM each time. For the same molecule, the EC50 (in the data set on Influenza A virus; in data set [6]) was ~4 µM throughout. Take `O=C1C(=O)N(Cc2cccc3ccccc23)c2ccc(Br)cc21`: the EC50 (with SARS-CoV-2 [8]; in data set [9]) was 6.8 µM throughout. In the data set on Potato virus Y, `C#CCCn1ccc2c(C3=N[C@@H](C(C)C)CO3)cccc21` displayed an EC50 of 256 µg/mL (≈ 913 µM).

Consider `CCCCCCCCCCCCCCCCCc1nnc(SCCO)n1/N=C/c1cn(Cc2ccccc2)c2ccccc12`, for which the IC50 in [10] is 8.7 µM; with SARS-CoV-2 [11], 87.6 µM. For `Cc1cncc(C#Cc2c[nH]c3ncc(-c4ccc(C(=O)NC5CC5)cc4)cc23)c1`, the results for the half-maximal effective concentration (EC50) (in [12]; in the data set with SARS-CoV-2 [13]; in data set [14]) were 1800 nM, 1820 nM and 180 nM, respectively. As for `CCc1ccc(S(=O)(=O)n2cc(C(=O)CN3CCOCC3)c3ccc(C)cc32)cc1`, the EC50 in data set [15] was 9.42 µM. As to `O=C(O)/C(O)=C/C(=O)c1cn(S(=O)(=O)C(=O)c2ccc(F)cc2)c2ccc(Br)cc12`, the IC50 in [16] worked out at 200 nM. Consider `CCCCCCCCCCCCCCCCCc1nnc(SCC(O)CO)n1/N=C/c1cn(Cc2ccccc2)c2ccccc12` (configuration not stated), for which the IC50 in data set [10] was 8.93 µM; in the data set with SARS-CoV-2 [11], 112 µM. For `CN1C(=O)/C(=N\NC(=S)Nc2ccc(S(N)(=O)=O)cc2)c2cc(OC(F)(F)F)ccc21`, in the data set with Sindbis virus, the EC50 was > 20000 nM. For `CCOC(=O)c1c(C)n(C)c2ccc(OCCCOc3ccc(C(=O)/C=C/c4ccc(C)cc4)cc3)cc12`, in the data set on Tobacco mosaic virus, a half-maximal effect (EC50) was put at 107 µg/mL (≈ 210 µM). With `Cc1ccc2c(c1)C(=O)C(=O)N2Cc1ccc2ccccc2c1`, the EC50 in data set [17] and in data set [18] was 6.8 µM throughout.

For the molecule `CCS(=O)(=O)N(c1ccc(C(=O)/C=C2/C(=O)Nc3ccccc32)cc1)S(=O)(=O)CC`, the IC50 with SARS-CoV-2 [19] worked out at 3.42 µM. In the data set on SARS-CoV-2 [4], `O=C(NCCc1ccc(N2CCCC2)cc1)c1[nH]c2ccc(Cl)cc2c1CO` displayed an IC50 of 3.42 µM. Regarding `CS(=O)(=O)Oc1ccc(C(=O)/C=C2/C(=O)Nc3ccccc32)cc1`, in the data set with SARS-CoV-2 [19], inhibition was half-maximal at 3.8 µM (IC50). On to `O=C1C(=O)N(Cc2ccc3ccccc3c2)c2ccccc21`, for which the IC50 with Zika virus came to 320 nM.

Take `O=C(NN1C(=O)CSC12CCCCC2)c1[nH]c2ccc(Cl)cc2c1-c1ccccc1`: the EC50 in the data set on Sindbis virus came to 1900 nM. Same read-out and setting: then `CN1C(=O)/C(=N\NC(=S)Nc2ccc(S(N)(=O)=O)cc2)c2cc(F)ccc21`, with > 4000 nM.

As to `CCc1ccc(S(=O)(=O)n2cc(C(=O)CCc3nnc(-c4ccccc4)o3)c3ccc(C)cc32)cc1`, the EC50 in data set [15] stood at 4.62 µM. Moreover, the CC50 in the data set with C8166 is > 469 µM. The molecule `O=C(NCCc1ccc(N2CCOCC2)cc1)c1[nH]c2ccc(Cl)cc2c1CO` returned an IC50 with SARS-CoV-2 [11] of 4.2 µM. `Cc1ccc(S(=O)(=O)n2cc(C(=O)/C=C3\OC(C)(C)OC3=O)c3cc(Br)ccc32)cc1`: the IC50 in data set [16] turned out to be 5700 nM. As for `CC1CCCC2(C1)SCCN2NC(=O)c1[nH]c2ccc(S(N)(=O)=O)cc2c1-c1ccccc1` (configuration not stated), in the data set on Human respirovirus 1, the Activity is 95.46%. Regarding `CN1C(=O)/C(=N\NC(=S)Nc2ccc(S(N)(=O)=O)cc2)c2cc(Br)ccc21`, the EC50 in the data set with Sindbis virus is > 2000 nM. `O=C1C2Cc3ccccc3N2[C@@H](c2ccc(O)c(O)c2)N1Nc1ccc([N+](=O)[O-])cc1` (some centres not stated) registered an IC50 in data set [20] of 8.52 µM. Besides, the CC50 at 72 h in [21] was > 100 µM. For the molecule `CCOc1ccc(C2=NN(C(N)=S)C(C3CN(Cc4ccc(C(F)(F)F)cc4)c4ccccc43)C2)cc1F` (configuration not stated), the EC50 in the data set with Potato virus Y is 202 µg/mL (≈ 372 µM). In the case of `COc1ccc([C@H]2N(Nc3ccc([N+](=O)[O-])cc3)C(=O)C3Cc4ccccc4N32)cc1O[Si](C)(C)C(C)(C)C` (mixture of isomers), in data set [20], it took 9.89 µM to reach half-maximal inhibition (IC50). In data set [21], the CC50 at 72 h was > 100 µM. In data set [20], `COc1ccc([C@H]2N(Nc3ccccc3)C(=O)C3Cc4ccccc4N32)cc1O[Si](C)(C)C(C)(C)C` (mixture of isomers) came in with an IC50 of 10.7 µM. In data set [21], the CC50 at 72 h is > 100 µM. In data set [2], `COc1ccc2c3c([nH]c2c1)C(C)=NCC3` [HARMALINE] had an IC50 of 3.42 µg/mL (≈ 16 µM). On to `CC1=NCCc2c1[nH]c1cc(O)ccc21` [HARMALOL], for which, in data set [2], the IC50 was found to be 0.02 µg/mL (≈ 0.0999 µM).

Consider `CCOC(=O)c1c(CSc2ccccc2)n(C)c2cc(Br)c(O)c(CN(C)C)c12` [UMIFENOVIR], for which the IC50 in the data set on Human alphaherpesvirus 2 worked out at 4.77 µg/mL (≈ 9.99 µM). For the same molecule, in data set [22], the CC50 at 72 h was 32.3 µg/mL (≈ 67.7 µM).
